Results: patent US5194371A, “Production of pradimicin antibiotics” (Bristol-Myers Squibb Company, priority 1991, dated 1993)

Columns and labels:
[1] = tested on: Candida albicans A9540; test: In vivo efficacy against C. albicans A9540 systemic infection in mice; parameters: species or system male ICR mice infected with Candida albicans; settings: A9540, iv, 504 h, i.v., single dose immediately after challenge, survival on day 21, read-out: PD50 (median protective dose)
Experimental: The in vivo efficacy of BMY-28960 was evaluated against Candida albicans A9540 systemic infection in male ICR mice (20-24 g body weight). Five mice are used for each dose level. Mice were challenged intravenously with 10 times the median lethal dose of the pathogen suspended in saline and BMY-28960 was intravenously administered once immediately after the challenge. The median protective dose (PD50) was calculated from survival rates recorded on day 21.

[2] = Tolerability following intravenous administration in ICR mice; format: in vivo; settings: i.v., up to 600 mg/kg
[3] = Solubility in solvent
[4] = tested on: strain AB 1236; test: Antibiotic susceptibility of strain AB 1236 (antibiotic disks); format: cell-based, Actinomadura sp. AB 1236; settings: 37° C., 4 days
Experimental: Antibiotic susceptibility of strain AB 1236 was tested using antibiotic disks (Tridisk, Eiken Chemical Co., Ltd.). The disks were placed onto the surface of yeast-glucose-malt agar (yeast extract 0.1%, glucose 1%, malt extract 0.1%, CaCl2.2H2 O 0.05% and agar 1.5%) which had been seeded by strain AB 1236 (4% inoculum), and the plates were then incubated at 37° C. for 4 days. Strain AB 1236 was resistant to 50 μg of fosfomycin and 300 U of polymixin B, and susceptible to 20 U of ampicillin, 1 μg of clavulanic acid, 2 μg of ticarcillin, 10 μg of cephalexin, 30 μg of tetracycline, 10 μg of chloramphenicol, 0.5 μg of erythromycin, 2 μg of josamycin, 2 μg of lincomycin, 5 μg of kanamycin, 5 μg of gentamicin, 5 μg of tobramycin, 2 μg of nalidixic acid, 2 μg of norfloxacin and 50 U of colistin.

For `C[C@@H]1[C@H](O)[C@@H](C)/C=C/C=C/C=C/C=C/C=C/C=C/C=C/[C@H](O[C@@H]2O[C@H](C)[C@@H](O)[C@H](N)[C@@H]2O)C[C@@H]2O[C@](O)(C[C@@H](O)C[C@@H](O)[C@H](O)CC[C@@H](O)C[C@@H](O)CC(=O)O[C@H]1C)C[C@H](O)[C@H]2C(=O)O` [Amphotericin B], which ED50 [1] is on record?
Its ED50 is 0.31 mg/kg.

Which ED50 [1] does the source give for `COc1cc(O)c2c(c1)C(=O)c1c(cc3c(c1O)-c1c(cc(C)c(C(=O)N[C@H](CO)C(=O)O)c1O)[C@H](O[C@@H]1O[C@H](C)[C@H](O)[C@H](O[C@@H]4OC[C@@H](O)[C@H](O)[C@H]4O)[C@H]1O)[C@H]3O)C2=O` [BMY-28960, 4'-deamino-4'-axial-hydroxypradimicin FA-2] here?
Its ED50 is 6.7 mg/kg.

And the “Lethality and apparent side effects” value [2]?
Its value is “neither lethality nor apparent side effects were noted”.

What about the Solubility in solvent ([3]; Dimethyl sulfoxide, N,N-dimethylformamide and alkaline water) of the same compound?
The Solubility in solvent was “Soluble”.

And the Solubility in solvent ([3]; Ethanol, methanol and acetone)?
The Solubility in solvent was “Slightly soluble”.

And the Solubility in solvent ([3]; Ethyl acetate, benzene, chloroform, acidic water, etc.)?
The Solubility in solvent was “Isoluble”.

With `OC(Cn1cncn1)(Cn1cncn1)c1ccc(F)cc1F` [Fluconazole] as the compound, how does the ED50 [1] read?
Its ED50 is greater than 50 mg/kg.

Which ED50 [1] does the source give for `CN[C@@H]1[C@H](O[C@@H]2OC[C@@H](O)[C@H](O)[C@H]2O)[C@@H](O)[C@H](O[C@H]2c3cc(C)c(C(=O)N[C@H](C)C(=O)O)c(O)c3-c3c(cc4c(c3O)C(=O)c3cc(OC)cc(O)c3C4=O)[C@@H]2O)O[C@@H]1C` [Pradimicin A] here?
Its ED50 is 10 mg/kg.

For `CC1(C)S[C@@H]2[C@H](NC(=O)[C@H](N)c3ccccc3)C(=O)N2[C@H]1C(=O)O` [ampicillin], which “Antibiotic susceptibility of strain AB 1236” value (“Antibiotic susceptibility” below) ([4]; disk 20 U) is on record?
The value was “susceptible”.

Which “Antibiotic susceptibility” value ([4]; disk 10 μg) does the source give for `CC1=C(C(=O)O)N2C(=O)[C@@H](NC(=O)[C@H](N)c3ccccc3)[C@H]2SC1` [cephalexin] here?
The value was “susceptible”.

With `O=C(N[C@H](CO)[C@H](O)c1ccc([N+](=O)[O-])cc1)C(Cl)Cl` [chloramphenicol] as the compound, how does the “Antibiotic susceptibility” value ([4]; disk 10 μg) read?
Its value is “susceptible”.

Which “Antibiotic susceptibility” value ([4]; disk 1 μg) does the source give for `O=C(O)[C@H]1/C(=C/CO)O[C@@H]2CC(=O)N21` [clavulanic acid] here?
Its value is “susceptible”.

With `CC[C@H]1OC(=O)[C@H](C)[C@@H](O[C@H]2C[C@@](C)(OC)[C@@H](O)[C@H](C)O2)[C@H](C)[C@@H](O[C@@H]2O[C@H](C)C[C@H](N(C)C)[C@H]2O)[C@](C)(O)C[C@@H](C)C(=O)[C@H](C)[C@@H](O)[C@]1(C)O` [erythromycin] as the compound, how does the “Antibiotic susceptibility” value ([4]; disk 0.5 μg) read?
The value was “susceptible”.

For `C[C@@H]1O[C@@H]1P(=O)(O)O` [fosfomycin], which “Antibiotic susceptibility” value ([4]; disk 50 μg) is on record?
Its value is “resistant”.

With `NC[C@H]1O[C@H](O[C@H]2[C@H](O)[C@@H](O[C@H]3O[C@H](CO)[C@@H](O)[C@H](N)[C@H]3O)[C@H](N)C[C@@H]2N)[C@H](O)[C@@H](O)[C@@H]1O` [kanamycin] as the compound, how does the “Antibiotic susceptibility” value ([4]; disk 5 μg) read?
The value was “susceptible”.

Which “Antibiotic susceptibility” value ([4]; disk 2 μg) does the source give for `CCC[C@@H]1C[C@@H](C(=O)N[C@@H]([C@H]2O[C@H](SC)[C@H](O)[C@@H](O)[C@H]2O)[C@@H](C)O)N(C)C1` [lincomycin] here?
The value was “susceptible”.

Which “Antibiotic susceptibility” value ([4]; disk 2 μg) does the source give for `CCn1cc(C(=O)O)c(=O)c2ccc(C)nc21` [nalidixic acid] here?
Its value is “susceptible”.

Which “Antibiotic susceptibility” value ([4]; disk 2 μg) does the source give for `CCn1cc(C(=O)O)c(=O)c2cc(F)c(N3CCNCC3)cc21` [norfloxacin] here?
Its value is “susceptible”.

Which “Antibiotic susceptibility” value ([4]; disk 30 μg) does the source give for `CN(C)C1C(=O)C(C(N)=O)=C(O)C2(O)C(=O)C3=C(O)c4c(O)cccc4C(C)(O)C3CC12` (stereo not shown) [tetracycline] here?
The value was “susceptible”.

With `CC1(C)S[C@@H]2[C@H](NC(=O)[C@H](C(=O)O)c3ccsc3)C(=O)N2[C@H]1C(=O)O` [ticarcillin] as the compound, how does the “Antibiotic susceptibility” value ([4]; disk 2 μg) read?
The value was “susceptible”.

For `NC[C@H]1O[C@H](O[C@H]2[C@H](O)[C@@H](O[C@H]3O[C@H](CO)[C@@H](O)[C@H](N)[C@H]3O)[C@H](N)C[C@@H]2N)[C@H](N)C[C@@H]1O` [tobramycin], which “Antibiotic susceptibility” value ([4]; disk 5 μg) is on record?
The value was “susceptible”.

With colistin as the compound, how does the “Antibiotic susceptibility” value ([4]; disk 50 U) read?
Its value is “susceptible”.

For gentamicin, which “Antibiotic susceptibility” value ([4]; disk 5 μg) is on record?
The value was “susceptible”.

Which “Antibiotic susceptibility” value ([4]; disk 2 μg) does the source give for josamycin here?
Its value is “susceptible”.

Which “Antibiotic susceptibility” value ([4]; disk 300 U) does the source give for polymixin B here?
The value was “resistant”.
